Measured values taken from US20130212744A1, “METHOD OF REDUCING INSECT-VECTORED VIRAL INFECTIONS” (priority 2010, published 2013).
Like-named read-outs stand apart in the source and are kept apart here.

What was measured:
[1] = system: whitefly Bemisia tabaci adults; assay: Soil use (drench) field trial on tomato, efficacy on whitefly adults; format: in vivo; settings: for Emax at 100 g/ha: 100 g ai/ha; for Emax at 150 g/ha: 150 g ai/ha
Procedure: Two soil applied studies were carried out in Elhasanya, Egypt in 2009 on tomato plants with the main goal to measure efficacy on the whitefly Bemisia tabaci. The plot size was 4.8 m^2 and 6 replicates were used in the trial. Products were applied once on young tomato plants at BBCH stage 14 as a drench. The spray volume was at the first application 350 l/ha. The evaluation of this study was done counting the adult whiteflies (Bemisia tabaci) as well as the nymphs and the eggs in each plot. In addition to the direct whitefly effect, visual symptoms of the virus, mainly TYLCV (tomato yellow leaf curl virus) were evaluated also.

[2] = system: whitefly Bemisia tabaci adults; assay: Foliar use field trial on tomato, efficacy on whitefly adults; format: in vivo; settings: Bemisia tabaci, foliar
Procedure: Two studies were carried out in Elhasanya, Egypt in 2009 on tomato plants of the variety Fayrouz with the main goal to measure efficacy on the whitefly Bemisia tabaci. The plot size was 4.8 m^2 and 6 replicates were used in the trial. Products were applied 3 times on young tomato plants at BBCH stages 14, 17 and 51 at spray intervals between 12 and 19 days. The spray volume was at the first application 350 l/ha and later 500 l/ha. The evaluation of this study was done counting the adult whiteflies (Bemisia tabaci) as well as the nymphs and the eggs in each plot. In addition to the direct whitefly effect, visual symptoms of the virus, mainly TYLCV (tomato yellow leaf curl virus) were evaluated also.
ASM=Acibenzolar-S-methyl. WG 50=Actigard® 50WG, a water-dispersible granule with the active ingredient ASM CYNT=Cyantraniliprole. WG 40=Cyazypyr®, a water dispersable granule with the active ingredient CYNT. Results on whitefly adults. Trial 1

Structure (SMILES): CNC(=O)c1cc(C#N)cc(C)c1NC(=O)c1cc(Br)nn1-c1ncccc1Cl [CYNT, 3-bromo-1-(3-chloro-2-pyridyl)-4′-cyano-2′-methyl-6′-(methylcarbamoyl)pyrazole-5-carboxanilide]
- Emax at 100 g/ha ([1]; 120 h, 5DAA, Trial 1): 79%
- Emax at 100 g/ha ([1]; 120 h, 5DAA, Trial 2): 70%
- Emax at 150 g/ha ([1]; 120 h, 5DAA, Trial 1): 83%
- Emax at 150 g/ha ([1]; 120 h, 5DAA, Trial 2): 76%
- Emax at 100 g/ha ([1]; 240 h, 10DAA, Trial 1): 75%
- Emax at 100 g/ha ([1]; 240 h, 10DAA, Trial 2): 71%
- Emax at 150 g/ha ([1]; 240 h, 10DAA, Trial 1): 75%
- Emax at 150 g/ha ([1]; 240 h, 10DAA, Trial 2): 80%
- Emax at 100 g/ha ([1]; 360 h, 15DAA, Trial 1): 78%
- Emax at 100 g/ha ([1]; 360 h, 15DAA, Trial 2): 76%
- Emax at 150 g/ha ([1]; 360 h, 15DAA, Trial 1): 79%
- Emax at 150 g/ha ([1]; 360 h, 15DAA, Trial 2): 83%
- Emax at 100 g/ha ([1]; 480 h, 20DAA, Trial 1): 72%
- Emax at 100 g/ha ([1]; 480 h, 20DAA, Trial 2): 74%
- Emax at 150 g/ha ([1]; 480 h, 20DAA, Trial 1): 74%
- Emax at 150 g/ha ([1]; 480 h, 20DAA, Trial 2): 82%
- Emax at 100 g/ha ([1]; 600 h, 25DAA, Trial 1): 66%
- Emax at 100 g/ha ([1]; 600 h, 25DAA, Trial 2): 72%
- Emax at 150 g/ha ([1]; 600 h, 25DAA, Trial 1): 69%
- Emax at 150 g/ha ([1]; 600 h, 25DAA, Trial 2): 80%
- Emax at 100 g/ha ([1]; 720 h, 30DAA, Trial 1): 61%
- Emax at 100 g/ha ([1]; 720 h, 30DAA, Trial 2): 65%
- Emax at 150 g/ha ([1]; 720 h, 30DAA, Trial 1): 67%
- Emax at 150 g/ha ([1]; 720 h, 30DAA, Trial 2): 71%
- Emax at 100 g/ha ([1]; 840 h, 35DAA, Trial 1): 53%
- Emax at 100 g/ha ([1]; 840 h, 35DAA, Trial 2): 57%
- Emax at 150 g/ha ([1]; 840 h, 35DAA, Trial 1): 59%
- Emax at 150 g/ha ([1]; 840 h, 35DAA, Trial 2): 62%
- Emax at 100 g/ha ([1]; 960 h, 40DAA, Trial 1): 39%
- Emax at 100 g/ha ([1]; 960 h, 40DAA, Trial 2): 43%
- Emax at 150 g/ha ([1]; 960 h, 40DAA, Trial 1): 45%
- Emax at 150 g/ha ([1]; 960 h, 40DAA, Trial 2): 45%
- Emax ([2]; 75 g ai/hl, 5DAA1, Trial 1, read-out: % Efficacy on Adults): 82%
- Emax ([2]; 75 g ai/hl, 5DAA1, Trial 2, read-out: % Efficacy on Adults): 82%
- Emax ([2]; 75 g ai/hl, 5DAA2, Trial 1, read-out: % Efficacy on Adults): 69%
- Emax ([2]; 75 g ai/hl, 5DAA2, Trial 2, read-out: % Efficacy on Adults): 69%
- Emax ([2]; 75 g ai/hl, 5DAA3, Trial 1, read-out: % Efficacy on Adults): 83%
- Emax ([2]; 75 g ai/hl, 5DAA3, Trial 2, read-out: % Efficacy on Adults): 83%
- Emax ([2]; 75 g ai/hl, 10DAA1, Trial 1, read-out: % Efficacy on Adults): 49%
- Emax ([2]; 75 g ai/hl, 10DAA1, Trial 2, read-out: % Efficacy on Adults): 49%
- Emax ([2]; 75 g ai/hl, 10DAA2, Trial 1, read-out: % Efficacy on Adults): 67%
- Emax ([2]; 75 g ai/hl, 10DAA2, Trial 2, read-out: % Efficacy on Adults): 67%
- Emax ([2]; 75 g ai/hl, 10DAA3, Trial 1, read-out: % Efficacy on Adults): 79%
- Emax ([2]; 75 g ai/hl, 10DAA3, Trial 2, read-out: % Efficacy on Adults): 79%
- Emax ([2]; 75 g ai/hl, 15DAA3, Trial 1, read-out: % Efficacy on Adults): 71%
- Emax ([2]; 75 g ai/hl, 15DAA3, Trial 2, read-out: % Efficacy on Adults): 71%
- Emax ([2]; 75 g ai/hl, 20DAA3, Trial 1, read-out: % Efficacy on Adults): 62%
- Emax ([2]; 75 g ai/hl, 20DAA3, Trial 2, read-out: % Efficacy on Adults): 62%
- Emax ([2]; 75 g ai/hl, Avg, Trial 1, read-out: % Efficacy on Adults Avg % C): 70%
- Emax ([2]; 100 g ai/hl, 5DAA1, Trial 1, read-out: % Efficacy on Adults): 89%
- Emax ([2]; 100 g ai/hl, 5DAA1, Trial 2, read-out: % Efficacy on Adults): 89%
- Emax ([2]; 100 g ai/hl, 5DAA2, Trial 1, read-out: % Efficacy on Adults): 89%
- Emax ([2]; 100 g ai/hl, 5DAA2, Trial 2, read-out: % Efficacy on Adults): 89%
- Emax ([2]; 100 g ai/hl, 5DAA3, Trial 1, read-out: % Efficacy on Adults): 90%
- Emax ([2]; 100 g ai/hl, 5DAA3, Trial 2, read-out: % Efficacy on Adults): 90%
- Emax ([2]; 100 g ai/hl, 10DAA1, Trial 1, read-out: % Efficacy on Adults): 74%
- Emax ([2]; 100 g ai/hl, 10DAA1, Trial 2, read-out: % Efficacy on Adults): 74%
